Reference: patent US20130011538A1, “CRYSTAL OF MULTIVALENT METAL SALT OF MONATIN” (Ajinomoto Co., Inc., priority 2011, published 2013)
Where a name gives a salt, the structure may show the parent alone.

Key:
[1] = Transmittance of monatin solution after storage (products containing glucose); format: physicochemical; details: storage at 44° C. and 78%
Description: (§1) <Name of device> UV-visible spectrophotometer, Cary 50, manufactured by Varian Medical Systems, Inc. <Measurement wavelength>430 nm
(§2) <Sample> 1 g of sweetener composition is totally dissolved in 50 mL of water.
(§3) 1 g of each sweetener composition shown in the compositional table 1 was filled in a paper packaging material, and the packaging material was sealed with a heat seal. The composition was stored for a given period of time in a constant temperature and constant humidity device at 44° C. and 78%. Then, the total amount of the stored sample was dissolved in 50 mL of water, and the residual ratio of each monatin salt was calculated from the data obtained by HPLC analysis of the solution.

[2] = Transmittance of monatin solution after storage (products containing sucrose); format: physicochemical; details: storage at 44° C. and 78%
Description: as §1, §2
as §3, with “table 2” for “table 1”

[3] = Sweetness intensity evaluated by panelists in comparison with an aqueous solution of 5% sucrose; details: in comparison with the sweetness intensity of an aqueous solution of 5% sucrose; average of 7 panelists
Description: <Moisture content> 10.8 wt % (corresponding to the following equation: monatin:water=2:4) <Magnesium content> 3.6 wt % (corresponding to the following equation: monatin:magnesium=2:1)< <Characteristic X-ray diffraction peaks (2θ±0.2°, CuKα)> 8.9°, 11.2°, 15.0°, 17.8°, and 22.5° (FIG. 3)< <Crystalline form> The crystalline form in the deposited ML was a relatively small flake-like form (FIG. 4)< <Sweetness intensity> 2700 times higher (in comparison with the sweetness intensity of an aqueous solution of 5% sucrose, average of the sweetness intensities evaluated by 7 panelists)

Row | SMILES | Change in color after storage [1] | Transmittance of the solution after storage (in words) [1] | Change in color after storage [2] | Transmittance of the solution after storage (in words) [2] | Sweetness intensity [3] [times]
1 | NC(CC(O)(Cc1c[nH]c2ccccc12)C(=O)O)C(=O)O [potassium salt, (2R,4R)-monatin monopotassium salt] | colored yellow | decreased | colored yellow | decreased | –
2 | NC(CC(O)(Cc1c[nH]c2ccccc12)C(=O)[O-])C(=O)O.NC(CC(O)(Cc1c[nH]c2ccccc12)C(=O)[O-])C(=O)O.O.O.O.O.[Mg+2] [Example 2, ((2R,4R)-monatin)2 magnesium salt tetrahydrate] | – | – | – | – | 2700
